# Values of other authors in patent publication US20170165232A1, “THREE-PHASE CONTROLLED-RELEASE TABLET COMPRISING MELATONIN AND PROCESS OF PREPARATION” (Ambros Pharma S.R.L., priority 2010, published 2017).
# Details: in humans
smiles,measurement,value
"COc1ccc2[nH]cc(CCNC(C)=O)c2c1 [melatonin, N-acetyl-5-methoxytryptamine]",half-life,about 40 minutes
